Data as given in ChEMBL document CHEMBL1201862, “PubChem BioAssay data set” (2004).
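Cultured in 96-well plates, cells were exposed to test compound for 48 hours across five concentrations. GI50 marks 50% less growth.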 Activity calls are given as the source filed them. Cut-off read from the data, not from the text of the source: active = GI50 up to about 1.1 µM and inactive = higher.

Tests used:
Assay in all cases: DTP human tumour cell line panel, 48 h
HCC 2998 = system: HCC 2998
SW-620 = system: SW-620
SK-MEL-28 = system: SK-MEL-28
A498 = system: A498
OVCAR-5 = system: OVCAR-5
MOLT-4 = system: MOLT-4
OVCAR-3 = system: OVCAR-3
ACHN = system: ACHN
SK-MEL-2 = system: SK-MEL-2
U-251 = system: U-251
SN12C = system: SN12C
CAKI-1 = system: CAKI-1
SNB-75 = system: SNB-75
UO-31 = system: UO-31
HCT-15 = system: HCT-15

Compound | GI50 (HCC 2998) | GI50 (SW-620) | GI50 (SK-MEL-28) | GI50 (A498) | GI50 (OVCAR-5) | GI50 (MOLT-4) | GI50 (OVCAR-3) | GI50 (ACHN) | GI50 (SK-MEL-2) | GI50 (U-251) | GI50 (SN12C) | GI50 (CAKI-1) | GI50 (SNB-75) | GI50 (UO-31) | GI50 (HCT-15)
Cc1cn2c(=O)c3ccccc3nc2s1 | > 100 µM (inactive) | > 100 µM (inactive) | > 100 µM (inactive) | > 100 µM (inactive) | > 100 µM (inactive) | > 100 µM (inactive) | > 100 µM (inactive) | > 100 µM (inactive) | > 100 µM (inactive) | > 100 µM (inactive) | > 100 µM (inactive) | > 100 µM (inactive) | 92.3 µM (inactive) | > 100 µM (inactive) | –
Nc1ccc(C2=N/C(=C\c3cccc(N)c3)C(=O)O2)cc1 | > 100 µM (inactive) | > 100 µM (inactive) | > 100 µM (inactive) | – | > 100 µM (inactive) | > 100 µM (inactive) | > 100 µM (inactive) | > 100 µM (inactive) | > 100 µM (inactive) | > 100 µM (inactive) | > 100 µM (inactive) | > 100 µM (inactive) | – | > 100 µM (inactive) | > 100 µM
Cc1ccc(/N=N/c2c(C)nn(-c3ccccc3)c2C)c(Br)c1 | > 100 µM (inactive) | 70.8 µM (inactive) | > 100 µM (inactive) | > 100 µM (inactive) | > 100 µM (inactive) | 64 µM (inactive) | > 100 µM (inactive) | > 100 µM (inactive) | > 100 µM (inactive) | 60.8 µM (inactive) | > 100 µM (inactive) | > 100 µM (inactive) | > 100 µM (inactive) | – | 36 µM
CCOC(=O)N1Cc2ccoc2C1 | > 100 µM (inactive) | > 100 µM (inactive) | > 100 µM (inactive) | – | > 100 µM (inactive) | > 100 µM (inactive) | > 100 µM (inactive) | > 100 µM (inactive) | > 100 µM (inactive) | > 100 µM (inactive) | > 100 µM (inactive) | – | > 100 µM (inactive) | > 100 µM (inactive) | > 100 µM
O=C(Nc1nc2ncn(CCOC(=O)c3ccccc3)c2c(=S)[nH]1)c1ccccc1 | > 100 µM (inactive) | > 100 µM (inactive) | 42.3 µM (inactive) | 95.7 µM (inactive) | > 100 µM (inactive) | – | 43.1 µM (inactive) | > 100 µM (inactive) | 41.6 µM (inactive) | 31.8 µM (inactive) | > 100 µM (inactive) | > 100 µM (inactive) | 23.8 µM (inactive) | 61.7 µM (inactive) | > 100 µM
CN/N=C(/Cc1occc(=O)c1O)C(=O)Nc1ccccc1C | > 100 µM (inactive) | > 100 µM (inactive) | > 100 µM (inactive) | > 100 µM (inactive) | > 100 µM (inactive) | > 100 µM (inactive) | > 100 µM (inactive) | > 100 µM (inactive) | > 100 µM (inactive) | > 100 µM (inactive) | > 100 µM (inactive) | > 100 µM (inactive) | – | > 100 µM (inactive) | > 100 µM
CCOC(=O)C1(Cc2ccc3ccccc3c2)CCCCCN1 (configuration not stated) | 19.1 µM (inactive) | 24.5 µM (inactive) | 23.3 µM (inactive) | – | – | 4.91 µM (inactive) | 45.3 µM (inactive) | 58.2 µM (inactive) | – | 47 µM (inactive) | 29.4 µM (inactive) | 9.23 µM (inactive) | 2.78 µM (inactive) | 20.3 µM (inactive) | 18.7 µM
c1ccc([P+](c2ccccc2)(c2ccccc2)C2Sc3ccccc3S2)cc1 | 15.7 µM (inactive) | > 100 µM (inactive) | 13.6 µM (inactive) | 28.1 µM (inactive) | 19.7 µM (inactive) | – | 14.5 µM (inactive) | 17.3 µM (inactive) | – | 16 µM (inactive) | 16.6 µM (inactive) | 14.6 µM (inactive) | 17.8 µM (inactive) | 16.1 µM (inactive) | –
CC1=C(C)C(=O)c2c(cc3ccccn23)C1=O | 15.5 µM (inactive) | 19.2 µM (inactive) | 19 µM (inactive) | 21.2 µM (inactive) | 45.6 µM (inactive) | 24.2 µM (inactive) | 14.6 µM (inactive) | 32.2 µM (inactive) | – | 14.1 µM (inactive) | 13.7 µM (inactive) | – | 26.4 µM (inactive) | 24.3 µM (inactive) | 14.4 µM
O=C(COc1ccccc1Cl)N1N=C(c2ccccc2)CC1(O)c1ccccc1 (configuration not stated) | 15.9 µM (inactive) | 26.5 µM (inactive) | 17.4 µM (inactive) | – | 19.4 µM (inactive) | 7.43 µM (inactive) | 15.9 µM (inactive) | 17.1 µM (inactive) | 18.9 µM (inactive) | 11.7 µM (inactive) | 12.9 µM (inactive) | 29 µM (inactive) | 47.6 µM (inactive) | 10.1 µM (inactive) | 12.9 µM
Oc1cc(O)c2c(-c3c(O)c(-c4ccc(O)c(O)c4)[o+]c4cc(O)cc(O)c34)c(O)c(-c3ccc(O)c(O)c3)[o+]c2c1 | 39.2 µM (inactive) | 48.4 µM (inactive) | 91.2 µM (inactive) | 38.5 µM (inactive) | > 100 µM (inactive) | 30.5 µM (inactive) | 20.7 µM (inactive) | 21.7 µM (inactive) | – | 30.9 µM (inactive) | 39.9 µM (inactive) | 36.9 µM (inactive) | 24 µM (inactive) | 40.4 µM (inactive) | 41.8 µM
